According to US7704695B2, “Screening of compounds for BGT1 transporter activity” (XenoPort, Inc., priority 2005, dated 2010):

Key:
Assay type in all cases: cell-based
hBGT1 [1] = target: T1, hBGT1 (Homo sapiens, UniProt P48065); assay: hBGT1 competition uptake assay (inhibition of 3H-GABA uptake); design: expressed in transfected cells; host or cells: HEK-TREx cells (HEK-TREx-BGT1 inducible line), induced with tetracycline/doxycycline and butyrate; details: HEK-TREx-BGT1 cells induced to express BGT1; FIG. 2
T1 sequence (P48065 1-614): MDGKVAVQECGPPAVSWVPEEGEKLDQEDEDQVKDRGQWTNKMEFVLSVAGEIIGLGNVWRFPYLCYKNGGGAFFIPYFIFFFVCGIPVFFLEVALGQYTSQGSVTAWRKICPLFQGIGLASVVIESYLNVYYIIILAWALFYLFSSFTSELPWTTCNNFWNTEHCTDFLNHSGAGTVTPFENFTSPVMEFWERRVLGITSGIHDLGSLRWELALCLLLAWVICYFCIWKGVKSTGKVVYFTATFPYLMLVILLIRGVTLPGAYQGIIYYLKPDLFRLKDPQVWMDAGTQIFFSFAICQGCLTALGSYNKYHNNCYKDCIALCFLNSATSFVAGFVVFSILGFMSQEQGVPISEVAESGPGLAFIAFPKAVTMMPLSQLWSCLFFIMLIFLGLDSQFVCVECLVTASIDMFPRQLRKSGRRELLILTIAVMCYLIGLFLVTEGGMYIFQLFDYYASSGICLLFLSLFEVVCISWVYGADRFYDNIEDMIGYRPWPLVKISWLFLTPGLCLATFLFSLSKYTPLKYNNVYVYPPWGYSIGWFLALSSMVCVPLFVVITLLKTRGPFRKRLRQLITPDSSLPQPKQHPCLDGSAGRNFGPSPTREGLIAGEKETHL
Method: Alternatively, cells were washed manually with equivalent volumes using a multichannel pipettor.
Non-specific uptake was determined by measuring the uptake into cells not induced to express the transporter (“no tet”).

hBGT1 [2] = target: T1, hBGT1; assay: hBGT1 direct uptake assay (LC-MS-MS); design: expressed in transfected cells; host or cells: HEK-TREx cells (HEK-TREx-BGT1 inducible line), induced with tetracycline/doxycycline and butyrate; details: HEK-TREx-hBGT1 cells induced to express hBGT1
Method: Four concentrations (bracketing the affinity as measured by competition assays) per compound were routinely tested. Non-specific uptake was determined by measuring the uptake into cells not induced to express the transporter (“no tet”).
Typically, four concentrations bracketing the IC50 were tested. […] The samples were robustly vortexed and centrifuged for 10 minutes at 13,200 rpm to spin down any precipitate. […] Three additional 2-fold dilutions were made in the subsequent rows (B-D or […]) in HBSS.
An internal standard of 50 μM propranolol in 50:50 ethanol:water was also prepared.
The cells were washed twice in room temperature HBSS (100 μl/well/wash) using a 96-well plate washer (Bio Tek ELX405). Alternatively, cells were washed manually with equivalent volumes using a multichannel pipettor. Immediately before the assay was begun, the final 100 μl wash solution was removed from the cells.
After the final wash, as much of the wash buffer as possible was removed by aspirating the wells with a probe that reached the bottom of the wells. (Residual salts from the wash buffer can adversely affect the LC-MS-MS by disrupting the LC method or by suppressing the MS signal.) 150 μl of a 50:50 ethanol:water solution was added to each well to lyse the cells and extract the test compound. The plate was covered and allowed to sit for 20 minutes at room temperature to ensure cell lysis. […]

hBGT1 [3] = target: T1, hBGT1; assay: Oocyte uptake assay with BGT1 cRNA-injected Xenopus oocytes; design: expressed in transfected cells; host or cells: Xenopus oocytes injected with in vitro transcribed BGT1 cRNA; details: oocytes expressing BGT1 protein
Method: For expression in Xenopus oocytes, in vitro BGT1 cRNA is prepared and injected into defoliculated oocytes.
To measure directly the uptake of possible substrates, an oocyte uptake assay is performed in which uptake of compounds is measured by mass spectroscopy. […] Oocytes injected with BGT1 cRNA are incubated at 16-18° C. until maximal transporter expression is reached. Oocytes from the same batch, not injected with cRNA, can be used as a control. […] Subpools are homogenized in 150 μl of ice cold 80% MeOH/H2O and lysed manually.

Row | Direct Uptake Vmax (hBGT1 [2]) [pmol/min/well] | SMILES | Effect of unlabeled competitor on uptake of labeled GABA (hBGT1 [1]) | 3H-GABA uptake versus noninjected controls (hBGT1 [3])
1 | 110 | NCCCC(=O)O [GABA, γ-aminobutyric acid] | the uptake of labeled GABA decreased as the concentration of unlabeled GABA increased | 
2 |  | NCCCC(=O)O [^3H-GABA] |  | higher levels of ^3H-GABA uptake than noninjected controls
